Results from patent US8247211B2, “Glycopeptide antibiotics” (American Cyanamid Company, priority 2001, dated 2012).
In brackets after ≈: the same amount, converted by molar mass.

Experiments:
Experiment in all cases: In vitro antibacterial evaluation: minimum inhibitory concentration (MIC), broth dilution method
Type in all cases: cell-based
Enterococcus sp. = tested on: Enterococcus sp.
Method: (§1) The minimum inhibitory concentration (MIC), the lowest concentration of the antibiotic which inhibits growth of the test organism, is determined by the broth dilution method using Muller-Hinton II […] (Baltimore Biological Laboratories) following the recommendations of the National Committee for Clinical Laboratory Standards [Methods for dilution antimicrobial susceptibility tests for bacteria that grow aerobically, approved standard M7-A2, National Committee for Clinical Laboratory Standards, Villanova, Pa].
(§2) An inoculum level of 5×10^5 CFU/mL, and a range of antibiotic concentrations (64-0.06 μg/mL) is used. […] The test organisms include a spectrum of Gram-positive bacteria comprised of Staphylococcus sp., Streptococcus sp. and Enterococcus sp. These organisms include recent clinical isolates that are resistant to methicillin, penicillin and/or vancomycin.

Escherichia coli = tested on: Escherichia coli
Method: as §1, §2

Staphylococcus sp. = tested on: Staphylococcus sp.
Method: as §1, §2

Streptococcus sp. = tested on: Streptococcus sp.
Method: as §1, §2

[1] = broth dilution, 5×10^5 CFU/mL, 18 hours at 35° C.
[2] = strain ATCC 29213, broth dilution, 18 hours at 35° C.
[3] = strain GC 1131, broth dilution, 18 hours at 35° C.
[4] = strain GC 3051, broth dilution, 18 hours at 35° C.
[5] = strain GC 3053, broth dilution, 18 hours at 35° C.
[6] = strain GC 4541, broth dilution, 18 hours at 35° C.
[7] = strain GC 4542, broth dilution, 18 hours at 35° C.
[8] = strain GC 4543, broth dilution, 18 hours at 35° C.
[9] = strain GC 4544, broth dilution, 18 hours at 35° C.
[10] = strain GC 4545, broth dilution, 18 hours at 35° C.
[11] = strain GC 4546, broth dilution, 18 hours at 35° C.
[12] = strain GC 4547, broth dilution, 18 hours at 35° C.
[13] = strain GC 4548, broth dilution, 18 hours at 35° C.
[14] = strain GC 4549, broth dilution, 18 hours at 35° C.
[15] = strain GC 4551, broth dilution, 18 hours at 35° C.
[16] = strain GC 6257, broth dilution, 18 hours at 35° C.
[17] = 5×10^5 CFU/mL, 18 hours at 35° C.

## COc1cc(C2OCC3OC(OC4C(CO)OC(Oc5ccc(CC6NC(=O)C(C(C)c7ccccc7)NC(=O)CNC(=O)C(CO)NC(=O)C(C(O)C7CNC(=N)N7C7OC(CO)C(O)C(O)C7O)NC(=O)C(C(O)C7CNC(=N)N7)NC6=O)cc5)C(O)C4O)C(O)C(O)C3O2)ccc1[N+](=O)[O-] (stereo not drawn) [Example 153, Cyclo[glycyl-β-methylphenylalanyl-O-[4-O-[4,6-O-(3-methoxy-4-nitrobenzylidene)hexopyranosyl]hexopyranosyl]tyrosyl-3-(2-iminoimidazolidin-4-yl)seryl-3-(3-hexopyranosyl-2-iminoimidazolidin-4-yl)serylseryl]]
Enterococcus sp.; strain ATCC 29212
  MIC Enterococcus faecalis (ATCC 29212): 8 µg/mL (≈ 5.49 µM)
Enterococcus sp.; strain GC 2242
  MIC Enterococcus faecalis (GC 2242): 4 µg/mL (≈ 2.74 µM)
Enterococcus sp.; strain GC 2243
  MIC Enterococcus faecium (GC 2243): 4 µg/mL (≈ 2.74 µM)
Enterococcus sp.; strain GC 2691
  MIC Enterococcus faecalis (GC 2691): 8 µg/mL (≈ 5.49 µM)
Enterococcus sp.; strain GC 3059
  MIC Enterococcus faecalis (GC 3059): 8 µg/mL (≈ 5.49 µM)
Enterococcus sp.; strain GC 4552
  MIC Enterococcus faecalis (GC 4552): 8 µg/mL (≈ 5.49 µM)
Enterococcus sp.; strain GC 4553
  MIC Enterococcus faecalis (GC 4553): 8 µg/mL (≈ 5.49 µM)
Enterococcus sp.; strain GC 4554
  MIC Enterococcus faecalis (GC 4554): 8 µg/mL (≈ 5.49 µM)
Enterococcus sp.; strain GC 4556
  MIC Enterococcus faecium (GC 4556): 4 µg/mL (≈ 2.74 µM)
Enterococcus sp.; strain GC 4557
  MIC Enterococcus faecium (GC 4557): 2 µg/mL (≈ 1.37 µM)
Enterococcus sp.; strain GC 4558
  MIC Enterococcus avium (GC 4558): 8 µg/mL (≈ 5.49 µM)
Enterococcus sp.; strain GC 6189
  MIC Enterococcus faecalis (GC 6189): 4 µg/mL (≈ 2.74 µM)
Escherichia coli; strain ATCC 25922
  MIC Escherichia coli (ATCC 25922): 64 µg/mL (≈ 43.9 µM)
Escherichia coli; strain GC 4559
  MIC Escherichia coli (GC 4559): 64 µg/mL (≈ 43.9 µM)
Staphylococcus sp.; [1]
  MIC Coagulase Negative Staphylococcus (GC 4547): 1 µg/mL (≈ 0.686 µM)
  MIC Coagulase Negative Staphylococcus (GC 4548): 0.5 µg/mL (≈ 0.343 µM)
  MIC Coagulase Negative Staphylococcus (GC 4549): 0.5 µg/mL (≈ 0.343 µM)
  MIC Coagulase Negative Staphylococcus (GC 4551): 2 µg/mL (≈ 1.37 µM)
  MIC Coagulase Negative Staphylococcus (GC 6257): 0.5 µg/mL (≈ 0.343 µM)
  MIC Staphylococcus aureus (ATCC 29213): 2 µg/mL (≈ 1.37 µM)
  MIC Staphylococcus aureus (GC 1131): 2 µg/mL (≈ 1.37 µM)
  MIC Staphylococcus aureus (GC 3051): 2 µg/mL (≈ 1.37 µM)
  MIC Staphylococcus aureus (GC 3053): 4 µg/mL (≈ 2.74 µM)
  MIC Staphylococcus aureus (GC 4541): 2 µg/mL (≈ 1.37 µM)
  MIC Staphylococcus aureus (GC 4542): 2 µg/mL (≈ 1.37 µM)
  MIC Staphylococcus aureus (GC 4544): 2 µg/mL (≈ 1.37 µM)
  MIC Staphylococcus aureus (GC 4545): 2 µg/mL (≈ 1.37 µM)
  MIC Staphylococcus aureus-SMITH (GC 4543): 1 µg/mL (≈ 0.686 µM)
  MIC Staphylococcus haemolyticus (GC 4546): 1 µg/mL (≈ 0.686 µM)
Staphylococcus sp.; [2]
  MIC Staphylococcus aureus (ATCC 29213): 2 µg/mL (≈ 1.37 µM)
Staphylococcus sp.; [3]
  MIC Staphylococcus aureus (GC 1131): 2 µg/mL (≈ 1.37 µM)
Staphylococcus sp.; [4]
  MIC Staphylococcus aureus (GC 3051): 2 µg/mL (≈ 1.37 µM)
Staphylococcus sp.; [5]
  MIC Staphylococcus aureus (GC 3053): 4 µg/mL (≈ 2.74 µM)
Staphylococcus sp.; [6]
  MIC Staphylococcus aureus (GC 4541): 2 µg/mL (≈ 1.37 µM)
Staphylococcus sp.; [7]
  MIC Staphylococcus aureus (GC 4542): 2 µg/mL (≈ 1.37 µM)
Staphylococcus sp.; [8]
  MIC Staphylococcus aureus-SMITH (GC 4543): 1 µg/mL (≈ 0.686 µM)
Staphylococcus sp.; [9]
  MIC Staphylococcus aureus (GC 4544): 2 µg/mL (≈ 1.37 µM)
Staphylococcus sp.; [10]
  MIC Staphylococcus aureus (GC 4545): 2 µg/mL (≈ 1.37 µM)
Staphylococcus sp.; [11]
  MIC Staphylococcus haemolyticus (GC 4546): 1 µg/mL (≈ 0.686 µM)
Staphylococcus sp.; [12]
  MIC Coagulase Negative Staphylococcus (GC 4547): 1 µg/mL (≈ 0.686 µM)
Staphylococcus sp.; [13]
  MIC Coagulase Negative Staphylococcus (GC 4548): 0.5 µg/mL (≈ 0.343 µM)
Staphylococcus sp.; [14]
  MIC Coagulase Negative Staphylococcus (GC 4549): 0.5 µg/mL (≈ 0.343 µM)
Staphylococcus sp.; [15]
  MIC Coagulase Negative Staphylococcus (GC 4551): 2 µg/mL (≈ 1.37 µM)
Staphylococcus sp.; [16]
  MIC Coagulase Negative Staphylococcus (GC 6257): 0.5 µg/mL (≈ 0.343 µM)
Streptococcus sp.; strain ATCC 6301
  MIC Streptococcus pneumoniae (ATCC 6301): <0.06 µg/mL
Streptococcus sp.; strain GC 1894
  MIC Streptococcus pneumoniae (GC 1894): <0.06 µg/mL
Streptococcus sp.; strain GC 4563
  MIC Streptococcus pyogenes (GC 4563): 0.25 µg/mL (≈ 0.171 µM)
Streptococcus sp.; strain GC 4564
  MIC Streptococcus agalactiae (GC 4564): 0.5 µg/mL (≈ 0.343 µM)
Streptococcus sp.; strain GC 4565
  MIC Streptococcus pneumoniae (GC 4565): <0.06 µg/mL

## CCCCOC(=O)CCC1OCC2OC(OC3C(CO)OC(Oc4ccc(CC5NC(=O)C(C(C)c6ccccc6)NC(=O)CNC(=O)C(CO)NC(=O)C(C(O)C6CNC(=N)N6C6OC(CO)C(O)C(O)C6O)NC(=O)C(C(O)C6CNC(=N)N6)NC5=O)cc4)C(O)C3O)C(O)C(O)C2O1 (stereo not drawn) [Example 114, Cyclo[glycyl-β-methylphenylalanyl-O-[4-O-[4,6-O-(4-butoxy-4-oxobutylidene)hexopyranosyl]-hexopyranosyl]tyrosyl-3-(2-iminoimidazolidin-4-yl)seryl-3-(3-hexopyranosyl-2-iminoimidazolidin-4-yl)serylseryl]]
Enterococcus sp.; [1]
  MIC Enterococccus avium (GC 4558): 8 µg/mL (≈ 5.57 µM)
  MIC Enterococccus faecalis (ATCC 29212): 4 µg/mL (≈ 2.79 µM)
  MIC Enterococccus faecalis (GC 2691): 4 µg/mL (≈ 2.79 µM)
  MIC Enterococccus faecalis (GC 3059): 8 µg/mL (≈ 5.57 µM)
  MIC Enterococccus faecalis (GC 4552): 4 µg/mL (≈ 2.79 µM)
  MIC Enterococccus faecalis (GC 4553): 8 µg/mL (≈ 5.57 µM)
  MIC Enterococccus faecalis (GC 4554): 4 µg/mL (≈ 2.79 µM)
  MIC Enterococccus faecalis (GC 6189): 4 µg/mL (≈ 2.79 µM)
  MIC Enterococccus faecium (GC 2243): 4 µg/mL (≈ 2.79 µM)
  MIC Enterococccus faecium (GC 4556): 4 µg/mL (≈ 2.79 µM)
  MIC Enterococccus faecium (GC 4557): 2 µg/mL (≈ 1.39 µM)
  MIC Enterococcus faecalis (GC 2242): 4 µg/mL (≈ 2.79 µM)
Escherichia coli; [17]
  MIC Escherichia coli (ATCC 25922): 64 µg/mL (≈ 44.6 µM)
  MIC Escherichia coli (GC 4559): 64 µg/mL (≈ 44.6 µM)
  MIC Escherichia coli (GC 4560): 1 µg/mL (≈ 0.697 µM)
Staphylococcus sp.; strain ATCC 29213
  MIC Staphylococcus aureus (ATCC 29213): 2 µg/mL (≈ 1.39 µM)
Staphylococcus sp.; [2]
  MIC Staphylococcus aureus (ATCC 29213): 2 µg/mL (≈ 1.39 µM)
Staphylococcus sp.; strain GC 1131
  MIC Staphylococcus aureus (GC 1131): 2 µg/mL (≈ 1.39 µM)
Staphylococcus sp.; [3]
  MIC Staphylococcus aureus (GC 1131): 2 µg/mL (≈ 1.39 µM)
Staphylococcus sp.; strain GC 3051
  MIC Staphylococcus aureus (GC 3051): 2 µg/mL (≈ 1.39 µM)
Staphylococcus sp.; [4]
  MIC Staphylococcus aureus (GC 3051): 2 µg/mL (≈ 1.39 µM)
Staphylococcus sp.; strain GC 3053
  MIC Staphylococcus aureus (GC 3053): 2 µg/mL (≈ 1.39 µM)
Staphylococcus sp.; [5]
  MIC Staphylococcus aureus (GC 3053): 2 µg/mL (≈ 1.39 µM)
Staphylococcus sp.; strain GC 4541
  MIC Staphylococcus aureus (GC 4541): 2 µg/mL (≈ 1.39 µM)
Staphylococcus sp.; [6]
  MIC Staphylococcus aureus (GC 4541): 2 µg/mL (≈ 1.39 µM)
Staphylococcus sp.; strain GC 4542
  MIC Staphylococcus aureus (GC 4542): 1 µg/mL (≈ 0.697 µM)
Staphylococcus sp.; [7]
  MIC Staphylococcus aureus (GC 4542): 1 µg/mL (≈ 0.697 µM)
Staphylococcus sp.; strain GC 4543, 18 hours at 35° C.
  MIC Staphylococcus aureus-SMITH (GC 4543): 2 µg/mL (≈ 1.39 µM)
Staphylococcus sp.; [8]
  MIC Staphylococcus aureus-SMITH (GC 4543): 2 µg/mL (≈ 1.39 µM)
Staphylococcus sp.; strain GC 4544
  MIC Staphylococcus aureus (GC 4544): 2 µg/mL (≈ 1.39 µM)
Staphylococcus sp.; [9]
  MIC Staphylococcus aureus (GC 4544): 2 µg/mL (≈ 1.39 µM)
Staphylococcus sp.; strain GC 4545
  MIC Staphylococcus aureus (GC 4545): 2 µg/mL (≈ 1.39 µM)
Staphylococcus sp.; [10]
  MIC Staphylococcus aureus (GC 4545): 2 µg/mL (≈ 1.39 µM)
Staphylococcus sp.; strain GC 4546
  MIC Staphylococcus haemolyticus (GC 4546): 1 µg/mL (≈ 0.697 µM)
Staphylococcus sp.; [11]
  MIC Staphylococcus haemolyticus (GC 4546): 1 µg/mL (≈ 0.697 µM)
Staphylococcus sp.; strain GC 4547
  MIC Coagulase Negative Staphylococcus (GC 4547): 2 µg/mL (≈ 1.39 µM)
Staphylococcus sp.; [12]
  MIC Coagulase Negative Staphylococcus (GC 4547): 2 µg/mL (≈ 1.39 µM)
Staphylococcus sp.; strain GC 4548
  MIC Coagulase Negative Staphylococcus (GC 4548): 1 µg/mL (≈ 0.697 µM)
Staphylococcus sp.; [13]
  MIC Coagulase Negative Staphylococcus (GC 4548): 1 µg/mL (≈ 0.697 µM)
Staphylococcus sp.; strain GC 4549
  MIC Coagulase Negative Staphylococcus (GC 4549): 2 µg/mL (≈ 1.39 µM)
Staphylococcus sp.; [14]
  MIC Coagulase Negative Staphylococcus (GC 4549): 2 µg/mL (≈ 1.39 µM)
Staphylococcus sp.; strain GC 4551
  MIC Coagulase Negative Staphylococcus (GC 4551): 2 µg/mL (≈ 1.39 µM)
Staphylococcus sp.; [15]
  MIC Coagulase Negative Staphylococcus (GC 4551): 2 µg/mL (≈ 1.39 µM)
Staphylococcus sp.; strain GC 6257
  MIC Coagulase Negative Staphylococcus (GC 6257): 1 µg/mL (≈ 0.697 µM)
Staphylococcus sp.; [16]
  MIC Coagulase Negative Staphylococcus (GC 6257): 1 µg/mL (≈ 0.697 µM)
Streptococcus sp.; [1]
  MIC Streptococcus agalactiae (GC 4564): 0.5 µg/mL (≈ 0.348 µM)
  MIC Streptococcus pneumoniae (GC 1894): <0.06 µg/mL
  MIC Streptococcus pneumoniae (GC 4565): 0.25 µg/mL (≈ 0.174 µM)
  MIC Streptococcus pneumonine (ATCC 6301): 0.12 µg/mL (≈ 0.0836 µM)
  MIC Streptococcus pyogenes (GC 4563): 0.5 µg/mL (≈ 0.348 µM)
